These results are taken from patent US12440476B2, “Agents that target telomerase reverse transcriptase (TERT) for treating cancer and sensitizing cancer cells to genotoxic therapy” (Northwestern University, priority 2022, dated 2025).

Data set [1] relates to Saos-2 cells. Nature of the data set: Clonogenic survival after irradiation (radiosensitivity). Type of data set: cell-based, human. The note with it: NU-1 1 μM. As to the method:
(§1) To assess radiosensitivity, MCF7, Saos-2, or CT26 cells were seeded in 6-well plates at 100 cells per well in triplicate, allowed to attach overnight and treated with DMSO or TERT inhibitors at subtoxic concentrations for 1 h prior to IR. MCF7 cells were treated with 0.5 μM NU-1, 10 μM BIBR 1532, or 1 μM MST-312, Saos-2 cells with 1 μM NU-1 or 20 μM BIBR 1532 and CT26 cells with 1 μM NU-1, 20 μM BIBR 1532 or 2 μM MST-312. Doses of 0, 1, 2, 3, 4, or 5 Gy were applied using a GammaCell ^60Co γ-ray source (Nordion) at a dose rate of 7.09 cGy/sec. After that MCF7 and Saos-2 cells were cultured for 3 weeks and CT26 for 2 weeks, then fixed and stained with crystal violet. Colonies of at least 50 cells were counted. Data from three independent biological replicates were acquired. The surviving fraction (SF) was calculated using the following formula: […]

The test system of data set [2] is MCF7 cells. The data set is described as above. Type of data set: cell-based, human. The conditions noted are these: NU-1 0.5 μM. As to the method:
as §1

For data set [3], the system named is CT26 cells. Description: Clonogenicity assay (inhibitor alone). Type of data set: cell-based, mouse. The note with it: 1 μM NU-1, 2 μM MST, 20 μM BIBR. As to the method:
MCF7, Saos-2, or CT26 cells were seeded in 6-well plates at 100 cells per well in triplicate and allowed to attach overnight. MCF7 or CT26 cells were then treated with DMSO vehicle or TERT inhibitors in final concentration of 0.25, 0.5, 0.75, 1, 2 μM for NU-1, 2.5, 5, 7.5, 10, 20 μM for BIBR 1532, or 1, 2, 3, 4, 5 μM for MST-312. Saos-2 cells were treated with DMSO vehicle or TERT inhibitors in final concentration of 0.25, 0.5, 0.75, 1, 2 μM for NU-1 or 2.5, 5, 10, 20, 40 μM for BIBR 1532. The final volume of cell culture medium was 3 mL per well. MCF7 and Saos-2 cells were continuously cultured for 3 weeks and CT26 for 2 weeks in the presence of TERT inhibitors, fixed in methanol for 5 min, then stained with 0.5% crystal violet for 10 min at room temperature. After washing with water, the plates were dried at room temperature and imaged with an iBright Imaging System (Thermo Fisher Scientific).

The test system of data set [4] is MCF7 cells. Description: Senescence-associated beta-galactosidase (SA-β-Gal) assay. Type of data set: cell-based, human. The note with it: 50 nM, 7 days after IR. As to the method: MCF7, Saos-2, or CT26 cells were seeded at 3×10^4 per well in 6-well plates and allowed to attach to plate overnight. […] Then MCF7 and Saos-2 cells were irradiated with 0 or 6 Gy and CT26 cells with 0 or 10 Gy. After IR, MCF7 and Saos-2 cells were continuously cultured for 7 days and CT26 for 5 days, then fixed in 2% PFA and stained with staining buffer (1 mg/ml X-Gal (Golden Bio), 40 mM citric acid/sodium phosphate, 150 mM NaCl, 2 mM MgCl2, 3.3 mM K3[Fe(CN)6], 3.3 mM K4[Fe(CN)6], pH=6) for 16 h at 37° C., then washed with warm PBS three times and imaged in PBS within a week. Images were captured on a Zeiss Axiovert 200M microscope with a 20× Plan-NeoFluar objective and Axiocam digital camera. SA-β-Gal-positive and -negative cells were counted in more than 5 fields, yielding an average percentage indicated on each SA-β-Gal image as mean±SD. Three replicates were performed.

A short description of data set [5]: Tolerability in mice. Type of data set: in vivo. The conditions noted are these: BALB/c mice.
In data set [6] the test system is MCF7 cells. The conditions noted are these: cited from earlier work.
In data set [7] the test system is A549 cells. The note with it: cited from earlier work.
Data set [8] has as its system CD8+ T cells. Description: In vitro T cell priming assay (CFSE dilution). Type of data set: cell-based, mouse. The note with it: DCs stimulated by inhibitor treated and irradiated (10 Gy) CT26 cells; 5 days; NU-1 1 μM, MST 2 μM. As to the method: To evaluate effects of TERT on tumor immunogenicity, CT26 cells were seeded at […] per well in 12-well plates, allowed to attach overnight, and then treated with DMSO, NU-1 (1 μM), or MST-312 (2 μM) for 1 h, followed by 0 or 10 Gy. 5 days after IR, the media were removed, cells washed with PBS, and fresh immune cell culture medium added. CT26 cells were then cultured overnight, followed by coculturing with immature BMDCs for 12-16 h at a 1:2 ratio. After coculture, the suspension BMDCs were collected into round bottom FACS tubes, washed with PBS, and stained with Zombie yellow (1:1000, BioLegend) for 10 min at room temperature. […] After PBS washing, cells were resuspended in 300 μL Cell Staining Buffer and analyzed using a BD Fortessa 4-15 HTS Flow cytometer within 2 hours. Data were then analyzed by FlowJo software. […]
Splenocytes isolated from CT26 immunized mice were stained with 0.5 μM carboxyfluorescein succinimidyl ester (CFSE) (Thermo Fisher Scientific, Cat #C34554) for 10 min at room temperature (Quah et al., 2007). […] Cells were analyzed using a BD Fortessa 4-15 HTS flow cytometer and FlowJo software. […]

For the molecule `C=C1C(=O)[C@](C)(C(=O)OC)[C@H](CCc2cn(Cc3ccc(F)cc3F)nn2)O[C@@H]1C` [NU-1], the “Radiosensitization in clonogenic survival assay” value in data set [1] (Saos-2 (telomerase negative), BIBR 20 μM) was “Neither NU-1 nor BIBR displayed radiosensitization”; in data set [2] (MCF7, BIBR 10 μM, MST 1 μM, IR 0-5 Gy) it was “strongest effects”. Further, the “Mean SF2 (surviving fraction at 2 Gy)” value worked out at 0.583 in data set [1] (Saos-2 cells, BIBR 1532 20 μM for 1 h prior to IR, 2 Gy) and 0.116 in data set [2] (MCF7 cells, BIBR 1532 10 μM, MST-312 1 μM for 1 h prior to IR, 2 Gy). The “Tolerance in clonogenic assay (inhibitor alone)” value in data set [3] is given as “tolerated”. For the same molecule, in data set [4], the “Enhancement of senescence after IR at low concentration” value is given as “sufficient to enhance senescence after IR”. Moreover, the Tolerability in mice result in data set [5] is “well-tolerated”. The LD50 was 21 µM in data set [6] and 35 µM in data set [7]. In data set [8], the “Proliferating CD8+ T cells” value was 33.5%.
